Columns and labels:
[1] = Pharmacokinetics, Pt in rat plasma after intravenous administration; format: in vivo, SD rats
Protocol: The pharmacokinetic profile of complex 3 was performed as compared with cisplatin. […] A non-compartment model was applied to analyze changes of pharmacokinetic behaviors. […] The results could be attributed to the biodistribution of the complex 3 in normal tissues as well as retention in blood circulation.
0.6 ml of blood compounds were collected from orbital cavity at 5 min followed by 0.5, 1, 2, 4, 8, 12 and 24 h after intravenous administration, heparinized and then centrifuged at 4000 rpm for 20 min at 4°C. The supernatant plasma was collected for measurement of Pt content using ICP-MS. The apparent plasma half-life time was calculated using a Phoenix Win Nonlin 6.3 Program (Pharsight Cooperation, St. Louis Missouri, USA).

γ-H2AX = assay: Nuclear γH2AX foci analysis; format: cell-based, human; details: A549, 8 h and 12 h
Source text: (§1) The serine 139-phosphorylated form of chromatin-associated histone H2AX, namely γ-H2AX, is a key marker of cellular response to DDR, particularly DSBs. […] Obviously, pre-treatment of NAC could considerably alleviate the DDR triggered by complex 3 (Figure 5B). Therefore, we came to a conclusion that complex 3 caused DDR especially DSBs in A549 cells, which might happen after the increased level of intracellular ROS. In order to reveal the mechanisms underlying the enhanced DNA damage, complex 3 was studied to learn whether it could reduce the activation of DNA repair response including the co-localization of DSB repair protein MDC1/Aprataxin within nucleus. […] In order to reveal the mechanisms underlying DNA damage, complex 3 was studied to detect whether it could suppress the activation of DNA single strand break repair via the phosphorylation of SSB repair mediator/adaptor proteins XRCC1 within nucleus.
(§2) For assessment of DSBs repair kinetics we detected the total nuclear volume for an average of 50–60 nuclei per time points and cell type. Briefly, A549 cells were grown to confluence in 35 mm petri-dishes with 0.17 mm glass bottom. […] Non-specific binding was blocked by incubation with 5% FCS/PBS/0.1% Triton X-100 for 1 h at RT. […] Numbers of γH2AX foci were counted in 50–60 nuclei and plotted over time as previously described.

[2] = tested on: A549 and NCI-H1299 cancer cells; assay: ROS measurement (DCF fluorescence); format: cell-based, human; details: A549 and NCI-H1299, 10 μM
Protocol: As excessive ROS generation is associated with cell-killing activity, we further examined whether complex 3 could also induce the formation of excessive ROS in A549 and NCI-H1299 cancer cells.
The generation of ROS induced by complex 3 was determined with the cell permeant fluorogenic probe 2′,7′-dichlorodihydrofluorescein diacetate (H2DCFDA; Molecular Probes, Invitrogen, Darmstadt, Germany) as described. H2DCFDA diffuses into the cell, where it is enzymatically converted by intracellular esterases and oxidized into the high fluorescence compound DCF, which allows the determination of H2O2, peroxynitrite anions and peroxyl radicals. Approximately 4×10^3 A549 and NCI-H1299 cancer cells per well were plated on white bottom 96-well plates in extracellular fluid ([…] NaCl, 3 mM KCl, 1 mM CaCl2, 1 mM MgCl2, 10 mM HEPES and 25 mM glucose; pH 7.4). […] Then, cells were loaded with […] H2DCFDA for 30 min at 37°C and 5% CO2. Then, cells DCF generation was measured over time using a fluorometer (Fluostar BMG Labtech, Offenburg, Germany) at 492 nm excitation and 520 nm emission.

MDC1/Aprataxin = assay: Immunostaining of DSB repair proteins; format: cell-based, human; details: A549, 10 μM, 24 h
Source text: as §1, §2

A549 cells = assay: Quantification of apoptotic cells (annexin V/PI flow cytometry); format: cell-based, human
Protocol: The role of complex 3-induced autophagy in cell death was further analyzed (Figure 6). When A549 cancer cells were treated with complex 3 of 10 μM, the protein expression of LC3-II was increased (Figure 6A). […] Treatment with complex 3 for 24 h caused a 4.5-folds increase in cells undergoing autophagy (Figure 6C). […] Moreover, Bax and Bcl-2 expressions were measured by western blot analysis of whole cell lysates.
To investigate the role of ROS in complex 3-induced cell death, the level of intracellular H2O2 was measured. […] Exposure of A549 cells to NAC reduced levels of LC3-II from 2.3- to 1.5-folds (Figure 8B). […] In parallel, the complex 3-induced increase ratio of Bax/Bcl-2 was suppressed by NAC (Figure 8E).
The mode of cell death was analyzed by flow cytometry with annexin V/propidium iodide (PI) double-staining to detect membrane events according to a previous study. After individual treatments, whole cells were collected in 4-(2-hydroxyethyl)-1-piperazineethanesulfonic acid (HEPES) buffer containing 10 mM HEPES (pH 7.4), 140 mM NaCl, and 2.5 mM CaCl2. Cells were subsequently stained with annexin V (2.5 μg/ml) and PI (2 ng/ml) for 20 min, followed by analysis by flow cytometry (Beckman Coulter). Cystograms of the four quadrants in the figure were used to distinguish normal (annexin V^−/PI^−), early apoptotic (annexin V^+/PI^−), late apoptotic(annexin V^+/PI^+), and necrotic cells (annexin V^−/PI^+). The sum of early apoptosis and late apoptosis is presented as total apoptosis.

SMILES: CC(C)C[NH+]1[C@@H]2CCCC[C@H]2[NH+](CC(C)C)[Pt-2]12[O]C(=O)CC(=O)[O]2 (stereo partly shown) [Complex 3]
- t1/2, Pt concentration-time profile in rat plasma ([1]; rat, in vivo, iv, 5 mg/kg): ~ 24.5 h
- γ-H2AX (γ-H2AX): obvious increases in γ-H2AX
- ROS production [2]: induced the production of significant amounts of ROS
- co-localization of MDC1/Aprataxin to the damaged DNA (MDC1/Aprataxin): dramatically decrease in the co-localization of MDC1/Aprataxin
- percentage of apoptosis (A549 cells; A549, 10 μM complex 18 h, without NAC): 52.5%
- percentage of apoptosis (A549 cells; A549, 5 mM NAC 2 h pretreatment then 10 μM complex 18 h): 34.2%

SMILES: O=C1[O][Pt]2([NH][C@@H]3CCCC[C@H]3[NH]2)[O]C1=O [Oxaliplatin, oxaliplatin, reference compound]
- t1/2, Pt concentration-time profile in rat plasma ([1]; rats, intravenous, 5 mg/kg oxaliplatin or equivalent dose): ~ 13.1 h

Reference: PMC5458179, “Oxidative DNA double strand breaks and autophagy in the antitumor effect of sterically hindered platinum(II) complexes in NSCLCs” (Oncotarget, 2017)
